Test results reported in patent US20060128979A1, “High purity palm monoglycerides” (Lembaga Minyak Sawit Malaysia, priority 2004, published 2006).

What was measured:
Type in all cases: cell-based
[1] = test system: methicillin-resistant Staphylococcus aureus (MRSA) isolate SA; assay: Disc diffusion assay, MRSA isolate SA
Text: (§1) Monolaurin samples (MC, MW and MX) synthesized using the present invention were subjected to bio-assay evaluation. Disc diffusion assay was adopted as preliminary evaluation of the compounds as anti methicillin-resistant Staphylococcus aureus (MRSA) agent. Four types of antibiotics were used as comparison: Vancomycin (Va), Rifampicin (RD), Chloamphenicol (C) and Gentamicin (CN).

[2] = test system: methicillin-resistant Staphylococcus aureus (MRSA) isolate SP521; assay: Disc diffusion assay, MRSA isolate SP521
Text: as §1

[3] = test system: methicillin-resistant Staphylococcus aureus (MRSA) isolate N34; assay: Disc diffusion assay, MRSA isolate N34
Text: as §1

[4] = test system: methicillin-resistant Staphylococcus aureus (MRSA) isolate ST122; assay: Disc diffusion assay, MRSA isolate ST122
Text: as §1

[5] = test system: methicillin-resistant Staphylococcus aureus (MRSA) isolate D51; assay: Disc diffusion assay, MRSA isolate D51
Text: as §1

[6] = test system: methicillin-resistant Staphylococcus aureus (MRSA) isolate CT184; assay: Disc diffusion assay, MRSA isolate CT184
Text: as §1

[7] = test system: methicillin-resistant Staphylococcus aureus (MRSA) isolate HIS87; assay: Disc diffusion assay, MRSA isolate HIS87
Text: as §1

[8] = test system: methicillin-resistant Staphylococcus aureus (MRSA) isolate U949; assay: Disc diffusion assay, MRSA isolate U949
Text: as §1

[9] = C (Chloamphenicol) as comparison

SMILES | Diameter of Inhibitory Zone [1, 9] [mm] | Diameter of Inhibitory Zone ([1]; CN (Gentamicin) as comparison) [mm] | Diameter of Inhibitory Zone ([1]; Rd (Rifampicin) as comparison) [mm] | Diameter of Inhibitory Zone ([1]; Va (Vancomycin) as comparison) [mm] | Diameter of Inhibitory Zone [2, 9] [mm] | Diameter of Inhibitory Zone ([2]; CN (Gentamicin) as comparison) [mm] | Diameter of Inhibitory Zone ([2]; Rd (Rifampicin) as comparison) [mm] | Diameter of Inhibitory Zone ([2]; Va (Vancomycin) as comparison) [mm] | Diameter of Inhibitory Zone [3, 9] [mm] | Diameter of Inhibitory Zone ([3]; CN (Gentamicin) as comparison) [mm] | Diameter of Inhibitory Zone ([3]; Rd (Rifampicin) as comparison) [mm] | Diameter of Inhibitory Zone ([3]; Va (Vancomycin) as comparison) [mm] | Diameter of Inhibitory Zone [4, 9] [mm] | Diameter of Inhibitory Zone ([4]; CN (Gentamicin) as comparison) [mm] | Diameter of Inhibitory Zone ([4]; Rd (Rifampicin) as comparison) [mm] | Diameter of Inhibitory Zone ([4]; Va (Vancomycin) as comparison) [mm] | Diameter of Inhibitory Zone [5, 9] [mm] | Diameter of Inhibitory Zone ([5]; CN (Gentamicin) as comparison) [mm] | Diameter of Inhibitory Zone ([5]; Rd (Rifampicin) as comparison) [mm] | Diameter of Inhibitory Zone ([5]; Va (Vancomycin) as comparison) [mm] | other results
CCCCCCCCCCCC(=O)OCC(O)CO (stereo not shown) [MC, monolaurin] | 2.00 | 0.40 | 0.40 | 2.92 | 2.68 | 1.13 | 1.13 | 7.64 | 0.89 | 0.44 | 0.44 | 2.99 | 5.50 | 1.17 | 1.17 | 8.26 | 0.87 | 0.86 | 0.11 | 2.95 | Diameter of Inhibitory Zone [6, 9]: 0.82 mm; Diameter of Inhibitory Zone ([6]; CN (Gentamicin) as comparison): 0.35 mm; Diameter of Inhibitory Zone ([6]; Rd (Rifampicin) as comparison): 0.42 mm; Diameter of Inhibitory Zone ([6]; Va (Vancomycin) as comparison): 2.79 mm; Diameter of Inhibitory Zone [7, 9]: 0.84 mm; Diameter of Inhibitory Zone ([7]; CN (Gentamicin) as comparison): 0.96 mm; Diameter of Inhibitory Zone ([7]; Rd (Rifampicin) as comparison): 0.11 mm; Diameter of Inhibitory Zone ([7]; Va (Vancomycin) as comparison): 2.79 mm; Diameter of Inhibitory Zone [8, 9]: 4.73 mm; Diameter of Inhibitory Zone ([8]; CN (Gentamicin) as comparison): 1.02 mm; Diameter of Inhibitory Zone ([8]; Rd (Rifampicin) as comparison): 1.02 mm; Diameter of Inhibitory Zone ([8]; Va (Vancomycin) as comparison): 7.77 mm
CCCCCCCCCCCC(=O)OCC(O)CO (stereo not shown) [MW, monolaurin] | 3.72 | 0.74 | 0.74 | 5.42 | 2.14 | 0.90 | 0.90 | 6.12 | 0.93 | 0.46 | 0.46 | 3.12 | 4.25 | 0.90 | 0.90 | 6.38 | 0.88 | 0.88 | 0.11 | 3.00 | Diameter of Inhibitory Zone [6, 9]: 0.82 mm; Diameter of Inhibitory Zone ([6]; CN (Gentamicin) as comparison): 0.35 mm; Diameter of Inhibitory Zone ([6]; Rd (Rifampicin) as comparison): 0.42 mm; Diameter of Inhibitory Zone ([6]; Va (Vancomycin) as comparison): 2.79 mm; Diameter of Inhibitory Zone [7, 9]: 0.85 mm; Diameter of Inhibitory Zone ([7]; CN (Gentamicin) as comparison): 0.98 mm; Diameter of Inhibitory Zone ([7]; Rd (Rifampicin) as comparison): 0.12 mm; Diameter of Inhibitory Zone ([7]; Va (Vancomycin) as comparison): 2.84 mm; Diameter of Inhibitory Zone [8, 9]: 1.85 mm; Diameter of Inhibitory Zone ([8]; CN (Gentamicin) as comparison): 0.40 mm; Diameter of Inhibitory Zone ([8]; Rd (Rifampicin) as comparison): 0.40 mm; Diameter of Inhibitory Zone ([8]; Va (Vancomycin) as comparison): 3.04 mm
